Data on one compound can be found in article PMC8196714, “Design, Radiosynthesis and Preliminary Biological Evaluation in Mice of a Brain-Penetrant ^18F-Labelled σ2 Receptor Ligand” (International Journal of Molecular Sciences, 2021).

A short description of data set [1]: Quantification of radiometabolites in mouse tissues at 30 min p.i. The data set is classed as in vivo, CD-1 mice. On the procedure: From quantitative analysis of the radio-chromatograms, which indicated the presence of solely [^18F]RM273 (>99%; n = 3; Supplemental Information Table S1 and Figure S2), we concluded that upon the presence of an intact BBB, the PET image derived from [^18F]RM273 in the brain was not affected by confounding radiometabolites.
About 30 MBq [^18F]RM273 dissolved in about 150 µL isotonic saline was administered intravenously as a bolus in the tail vein of in awake female CD-1 mice weighing about 33 g (n = 3). At 30 min p.i., the animals were anesthetized and blood was withdrawn by retrobulbar bleeding using glass capillaries. Immediately afterwards, the animals were euthanized by cervical dislocation, and released urine sampled. Blood plasma was obtained from the whole blood sample by centrifugation (2 min, 8000 rpm, room temperature). In addition, the brain, the liver, and the pancreas were isolated and homogenized in 1 mL demineralized water on ice (1000 rpm, 10 strokes; glass vessel, PTFE plunger; Potter S, B. Braun Biotech International, Goettingen, Germany). Bone marrow (n = 2) was isolated by flushing the femur with about 200 µL isotonic saline.
The samples were further processed for subsequent radio-chromatographic analyses. Two consecutive extractions were performed as duplicate for plasma and brain determinations. Plasma and brain samples were added to an ice-cold MeOH/H2O mixture (9:1, v/v). The samples were vortexed for 3 min, incubated on ice for 5 min, and centrifuged at 12,000 rpm for 5 min. Supernatants were collected, the precipitates were re-dissolved in 100 µL of extraction solvent, and the extraction procedure was repeated. The activities of supernatants and precipitates were measured in a γ-counter (1480 WIZARD, Fa. Perkin Elmer), and the extraction efficiencies were calculated as ratio of the radioactivity in the supernatant to the radioactivity in the original sample (supernatant + precipitate). The supernatants from both extractions were combined, concentrated at 70 °C under argon stream up to a remaining volume of 100 µL, and subsequently analyzed by analytical radio-HPLC with a gradient system as applied in Section 5.2.2.
3. Quantification of radiometabolites in mouse
Table 1. Radiometabolite analysis of [18F]RM273 in different tissues 30 min p.i.
Experiment 1 Experiment 2
Extraction Intact Extraction Intact Extraction Intact efficiency tracer efficiency tracer (%) efficiency tracer
Figure 2. Representative radio-HPLC chromatograms of the metabolism studies of [18F]RM273 in different tissues obtained at 30 min p.i.. (A) Brain, (B) Plasma, (C) Pancreas, (D)
Liver and (E) Bone marrow. Conditions:
Reprosil-Pur C18-AQ (250 x 4.6 mm; 5 μm); gradient (eluent A 10% MeCN/20 mM
NH4OAcaq.; eluent B 90 % MeCN/20 mM
(1 picture or pasted object on this page, not shown here)

Data set [2] can be described thus: Dynamic PET imaging in CD1 mice. The class given is in vivo. Particulars: i.v. On the procedure: As expected by the optimal lipophilicity of [^18F]RM273 (see 2.3, [43]) the PET images and the time–activity curve obtained for the whole brain shown in Figure 6 indicate a fast permeation of the BBB with a mean standardized uptake value (SUV) of 1.3 ± 0.4 at 2.25 min p.i. (n = 4).
The biodistribution of [^18F]RM273 in mice was assessed by dynamic small animal PET (Nanoscan, Mediso, Budapest, Hungary) 60 min recordings, followed by T1 weighted (GRE, TR/TE = 15.0/2.4 ms, 252/252, FA = 25°) imaging for anatomical correlation and attenuation correction. The mice weighing 31.7 ± 3.8 g were anaesthetized with 2% isoflurane in 60% oxygen and placed on a thermostatically heated animal bed. [^18F]RM273 (7.2 ± 1.1 MBq) was injected i.v. into the lateral tail vein (bolus within 5 s) at the start of the PET-acquisition. List mode PET data were binned as a series of attenuation-corrected sinogram frames (12 × 10 s, 6 × 30 s, 5 × 60 s and 10 × 300 s) and were reconstructed by Ordered Subset Expectation Maximization (OSEM3D) with four iterations, six subsets, and a voxel size of 0.4 mm^3 (Nucline v2.01, Mediso, Hungary). The analysis of reconstructed datasets was performed with PMOD software (v4.103, PMOD Technologies LLC, Zurich, Switzerland). […]

A short description of data set [3]: In vitro stability of the radioligand in saline, PBS and TRIS-HCl buffer. The class given is physicochemical. Particulars: 37 °C. On the procedure:
The in vitro stability of [^18F]RM273 was investigated in saline, phosphate-buffered saline (PBS), and TRIS-HCl buffer (50 mM, pH 7.4) at 37 °C for 2 h, and the radioligand remained intact (90%, 94%, and 100%, respectively; saline for 1 h: 95%). The logD7.4 of [^18F]RM273 was experimentally determined by the shake-flask method as 1.78 ± 0.22 (n = 3), which is well within the range of 1–3.5 recommended for brain targeting compounds [43].
In vitro stability of [^18F]RM273 was determined in saline, phosphate-buffered saline (PBS), and TRIS (50 mM, pH 7.4) by incubation of approx. 5 MBq in 500 µL of each medium at 37 °C. Samples were taken after 30, 60, and 120 min and analyzed by analytical radio-HPLC with a gradient system as applied in Section 5.2.2.

Consider `COc1cc2c(cc1OC)CN(CCCCn1ccc3ccc([18F])nc31)CC2` [[^18F]RM273], for which the Intact tracer in data set [1] (Bone Marrow, Mouse 2) was 97%; in data set [1] (Bone Marrow, Mouse 3) it was 97%; in data set [1] (Brain, Mouse 1) it was 100%; in data set [1] (Brain, Mouse 2), 100%; in data set [1] (Brain, Mouse 3) it was 100%; in data set [1] (Liver, Mouse 1), 34%. The Intact tracer was determined as 36% in data set [1] (Liver, Mouse 2); 28% in data set [1] (Liver, Mouse 3); 100% in data set [1] (Pancreas, Mouse 1); 96% in data set [1] (Pancreas, Mouse 2); 96% in data set [1] (Pancreas, Mouse 3); 23% in data set [1] (Plasma, Mouse 1). The Intact tracer in data set [1] (Plasma, Mouse 2) is given as 37%; in data set [1] (Plasma, Mouse 3), 28%. Besides, the “intact radioligand in brain” value in data set [1] (mice, n = 3) is recorded as above 99%. For the same compound, the “mean standardized uptake value (SUV), whole brain” value in data set [2] (2.25 min p.i., n = 4) turned out to be 1.3 ± 0.4. Moreover, in data set [2] (60 min PET), the “peak-to-endpoint ratio, brain” value is listed as 6.4 ± 0.9. For the same compound, the radioligand remained intact was found to be 100% in data set [3] (TRIS-HCl buffer (50 mM, pH 7.4), 2 h); 94% in data set [3] (phosphate-buffered saline (PBS), 2 h); 95% in data set [3] (saline, 1 h); 90% in data set [3] (saline, 2 h).
